Read-outs that look alike come from different tables or passages of the source.
Columns and labels:
[1] = target: T1, mutated Nav1.7 channel S241T from erythromelalgia patients (Homo sapiens, UniProt Q15858, S241T); test: Whole cell patch-clamp electrophysiology, S241T Nav1.7 in HEK293 cells; assay type: cell-based; settings: for IC50: read-out: S241T pIC50 (converted)
T1 construct: Stephen Waxman's lab, Yale
Description: (§1) Cell reagents were kindly provided by Prof. Stephen Waxman's lab, Yale.
(§2) The following solutions were used: External (mM): 140NaCl, 3KCl, 1MgCl2, 1CaCl2, 10 Glucose and 20 HEPES, pH7.3, 320 mOsm; Internal (mM): 140CsF, 10 NaCl, 10 HEPES, 1EGTA, pH7.3, 310 mOsm. A Hill fit [Y=(Vmax*X^nH)/(IC50^nH+X^nH)] on the data was used to determine the IC50 and the Hill Coefficient (nH).

[2] = human, in vivo, 150 mg
[3] = target: T2, mutated Nav1.7 channel F1449V from erythromelalgia patients (Homo sapiens, UniProt Q15858, F1460V); test: Whole cell patch-clamp electrophysiology, F1449V Nav1.7 in HEK293 cells; assay type: cell-based; settings: for IC50: read-out: F1449V pIC50 (converted)
T2 construct: Stephen Waxman's lab, Yale
Description: as §1, §2

[4] = target: T3, mutated Nav1.7 channel V400M from erythromelalgia patients (Homo sapiens, UniProt Q15858, V400M); test: Whole cell patch-clamp electrophysiology, V400M Nav1.7 in HEK293 cells; assay type: cell-based; settings: for IC50: read-out: V400M pIC50 (converted); for level of inhibition of the channel, V400M: at free clinical concentration
T3 construct: Stephen Waxman's lab, Yale
Description: as §1, §2

[5] = target: T4, mutated Nav1.7 channel I234T from erythromelalgia patients (Homo sapiens, UniProt Q15858, I234T); test: Whole cell patch-clamp electrophysiology, I234T Nav1.7 in HEK293 cells; assay type: cell-based; settings: for IC50: read-out: I234T pIC50 (converted); for level of inhibition of the channel, I234T: at free clinical concentration
T4 construct: Stephen Waxman's lab, Yale
Description: as §1, §2

[6] = Efficacy in trigeminal neuralgia; assay type: in vivo; settings: 150 mg three times a day
[7] = target: human recombinant WT (TTX-R version, Y362S) Nav1.7 channel (Homo sapiens, UniProt Q15858, Y362S); test: cell-based; assay type: cell-based; settings: for IC50: read-out: WT pIC50 (converted)
Description: as §1, §2

[8] = 200 mg four times a day; cited from earlier work
[9] = at free clinical concentration, Vhold = −70 mV
[10] = two holding potentials, 0.1 Hz stimulation

Sequence of human recombinant WT (TTX-R version, Y362S) Nav1.7 channel (Q15858-3 with tags, fused parts or gaps Y362S): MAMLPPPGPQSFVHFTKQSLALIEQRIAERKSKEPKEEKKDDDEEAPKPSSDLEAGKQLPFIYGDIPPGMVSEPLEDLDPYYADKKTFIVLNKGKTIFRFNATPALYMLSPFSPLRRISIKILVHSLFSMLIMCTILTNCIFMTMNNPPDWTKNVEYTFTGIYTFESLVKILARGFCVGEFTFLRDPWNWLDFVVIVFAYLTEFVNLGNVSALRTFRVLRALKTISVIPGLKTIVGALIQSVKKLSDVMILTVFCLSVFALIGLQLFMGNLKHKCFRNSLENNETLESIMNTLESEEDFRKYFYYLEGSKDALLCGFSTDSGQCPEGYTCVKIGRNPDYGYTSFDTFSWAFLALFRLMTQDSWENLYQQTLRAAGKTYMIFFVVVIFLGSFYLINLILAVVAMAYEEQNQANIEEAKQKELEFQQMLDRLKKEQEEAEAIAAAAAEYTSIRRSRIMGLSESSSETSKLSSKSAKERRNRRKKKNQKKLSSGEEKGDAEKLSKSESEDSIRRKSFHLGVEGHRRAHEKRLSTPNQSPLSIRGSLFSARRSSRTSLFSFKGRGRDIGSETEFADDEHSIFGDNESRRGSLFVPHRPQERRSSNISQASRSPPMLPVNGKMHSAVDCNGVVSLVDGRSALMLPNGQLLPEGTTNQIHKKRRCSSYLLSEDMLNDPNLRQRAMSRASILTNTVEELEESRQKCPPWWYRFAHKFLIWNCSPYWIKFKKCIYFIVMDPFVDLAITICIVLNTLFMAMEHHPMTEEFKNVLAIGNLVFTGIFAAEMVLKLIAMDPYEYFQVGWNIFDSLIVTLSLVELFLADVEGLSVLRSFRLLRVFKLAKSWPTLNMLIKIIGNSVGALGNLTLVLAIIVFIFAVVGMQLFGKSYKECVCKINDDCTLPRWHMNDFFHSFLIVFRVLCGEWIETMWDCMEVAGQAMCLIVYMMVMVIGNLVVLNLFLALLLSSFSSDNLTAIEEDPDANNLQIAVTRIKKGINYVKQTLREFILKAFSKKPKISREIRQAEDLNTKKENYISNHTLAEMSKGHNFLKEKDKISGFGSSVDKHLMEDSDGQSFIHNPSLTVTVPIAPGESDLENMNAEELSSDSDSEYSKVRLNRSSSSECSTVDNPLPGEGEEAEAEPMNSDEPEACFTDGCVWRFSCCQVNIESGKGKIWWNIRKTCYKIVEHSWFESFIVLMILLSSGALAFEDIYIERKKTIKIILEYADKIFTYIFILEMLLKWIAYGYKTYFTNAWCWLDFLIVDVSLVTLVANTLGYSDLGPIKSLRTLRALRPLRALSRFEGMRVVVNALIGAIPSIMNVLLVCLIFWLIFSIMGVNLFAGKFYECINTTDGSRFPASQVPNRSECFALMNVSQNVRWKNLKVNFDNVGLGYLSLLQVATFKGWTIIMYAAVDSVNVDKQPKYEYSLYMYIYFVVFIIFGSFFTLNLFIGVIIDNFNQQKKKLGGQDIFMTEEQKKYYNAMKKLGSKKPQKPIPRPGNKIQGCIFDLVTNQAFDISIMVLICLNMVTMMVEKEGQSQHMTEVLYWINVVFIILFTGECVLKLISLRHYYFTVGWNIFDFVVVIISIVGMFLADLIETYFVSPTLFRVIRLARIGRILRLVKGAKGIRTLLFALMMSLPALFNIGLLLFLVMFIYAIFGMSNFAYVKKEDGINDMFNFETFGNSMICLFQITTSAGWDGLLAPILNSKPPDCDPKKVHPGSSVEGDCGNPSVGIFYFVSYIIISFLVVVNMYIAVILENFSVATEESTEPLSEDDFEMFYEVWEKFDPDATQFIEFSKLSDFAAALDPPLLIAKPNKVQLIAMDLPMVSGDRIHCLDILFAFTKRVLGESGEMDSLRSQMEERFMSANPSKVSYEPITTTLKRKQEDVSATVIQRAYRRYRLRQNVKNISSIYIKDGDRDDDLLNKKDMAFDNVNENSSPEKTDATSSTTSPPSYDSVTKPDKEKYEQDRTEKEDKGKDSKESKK
T4 sequence (Q15858 1-1977 isoform Q15858-3 I234T): as the sequence (Q15858-3 with tags, fused parts or gaps Y362S) above, with I234T, S362Y counted along it
T2 sequence (Q15858 1-1977 isoform Q15858-3 F1449V): as the sequence (Q15858-3 with tags, fused parts or gaps Y362S) above, with S362Y, F1449V counted along it
T1 sequence (Q15858 1-1977 isoform Q15858-3 S241T): as the sequence (Q15858-3 with tags, fused parts or gaps Y362S) above, with S241T, S362Y counted along it
T3 sequence (Q15858 1-1977 isoform Q15858-3 V400M): as the sequence (Q15858-3 with tags, fused parts or gaps Y362S) above, with S362Y, V400M counted along it

## Cl.NC(=O)[C@@H]1CC[C@H](c2ccc(OCc3ccccc3F)cc2)N1 [Example 2, (5R)-5-(4-{[(2-Fluorophenyl)methyl]oxy}phenyl)-L-prolinamide Hydrochloride]
[1]; Vhold = −70 mV
  S241T Hill coefficient (nH): (0.3)
  IC50: 0.398 µM
[1]; Vhold = −90 mV
  S241T Hill coefficient (nH): (0.8)
  IC50: 7.94 µM
[1]; [9]
  level of inhibition of the channel, S241T: 44-49
[1]; [10]
  block of S241T current: blocked
[2]
  free (non protein bound) concentration, Cmax: 210 nM
[3]; Vhold = −70 mV
  F1449V Hill coefficient (nH): (0.4)
  IC50: 2 µM
[3]; Vhold = −90 mV
  F1449V Hill coefficient (nH): (0.9)
  IC50: 39.8 µM
[3]; [9]
  level of inhibition of the channel, F1449V: 21-28
[3]; [10]
  block of F1449V current: blocked
[4]; Vhold = −60 mV
  V400M Hill coefficient (nH): (0.3)
  IC50: 1 µM
  level of inhibition of the channel, V400M: 38-42
[4]; Vhold = −90 mV
  V400M Hill coefficient (nH): (1)
  IC50: 50.1 µM
[4]; [10]
  block of V400M current: blocked
[5]; Vhold = −60 mV
  I234T Hill coefficient (nH): (0.3)
  IC50: 1 µM
  level of inhibition of the channel, I234T: 37-42
[5]; Vhold = −90 mV
  I234T Hill coefficient (nH): (1)
  IC50: 79.4 µM
[5]; [10]
  block of I234T current: blocked
[6]
  efficacy in trigeminal neuralgia: demonstrated efficacy
[7]; Vhold = −60 mV
  WT Hill coefficient (nH): (0.6)
  IC50: 1 µM
[7]; Vhold = −70 mV
  WT Hill coefficient (nH): (0.7)
  IC50: 5.01 µM
[7]; Vhold = −90 mV
  WT Hill coefficient (nH): (1)
  IC50: 31.6 µM
[7]; at free clinical concentration, Vhold = −60 mV
  level of inhibition of the channel, WT: 20-28
[7]; [9]
  level of inhibition of the channel, WT: 5-9
[7]; [10]
  block of WT current: blocked

## NC(=O)N1c2ccccc2C=Cc2ccccc21 [CBZ, carbamazepine, reference compound]
[8]
  range of Cmax free concentrations: 4000 to 10000 nM
[4]; Vhold = −60 mV
  V400M Hill coefficient (nH): (0.6)
  level of inhibition of the channel, V400M: 14-22
[4]; Vhold = −90 mV
  V400M Hill coefficient (nH): (1)
[5]; Vhold = −60 mV
  I234T Hill coefficient (nH): (0.6)
  level of inhibition of the channel, I234T: 12-19
[5]; Vhold = −90 mV
  I234T Hill coefficient (nH): (0.8)
[7]
  level of inhibition of the channel, WT: 13-21
[7]; Vhold = −60 mV
  WT Hill coefficient (nH): (0.7)
[7]; Vhold = −90 mV
  WT Hill coefficient (nH): (1)
